Experimental data published in PMC5577134 (Nature Communications, 2017).
Converted amounts (≈) assume the structure as drawn. Like-named read-outs stand apart in the source and are kept apart here. *1 amine or outer side, *2 acyl side, *3 side chain or, on linkers, in order; H or OH if unused. Where a SMILES comes first, the peptide text is derived from it. [ ]: non-standard residue; d: D form. ξ: configuration not given here. Trp(1-(1,1-Me2-allyl)) = C=CC(C)(C)n1cc(C[C@H](N)C(=O)O)c2ccccc21; NMeGlu(4S-Me) = C[C@@H](C[C@@H](C(=O)[*:2])N(C)[*:1])C(=O)[*:3]; Tyr(3-NO2) = N[CH](Cc1ccc(O)c([N+](=O)[O-])c1)C(=O)O; X1 = CC(C)(C1CO1)n1cc(CC(N[*:1])C(=O)[*:2])c2ccccc21; X2 = CC(CC(C(=O)[*:2])N(C)[*:1])C(=O)O; Gly(E-crotyl) = C/C=C/C[C@H](N)C(=O)O; ξNle(4,5-dehydro) = CC=CCC(N)C(=O)O; NMeL = CN[CH](CC(C)C)C(=O)O

What was measured:
[1] = system: Acinetobacter baumanii ATCC19606; experiment: Antibacterial broth dilution MIC; assay type: cell-based; conditions: Acinetobacter baumannii, ATCC19606
Experimental: (§1) To determine the antibacterial activities of these eight compounds (1–8), a preliminary screening of their antibacterial activities against a panel of Gram-positive and Gram-negative bacteria[6]–[8], M. smegmatis MC^2 155 and M. tuberculosis H37Rv, was conducted using a broth dilution method, [59]. Compounds 1–8 were dissolved in dimethylsulfoxide (DMSO) to give 3200 μg mL^−1 stock solutions. The stock solutions were then serially diluted to concentrations of 0.0625–128 μg mL^−1 with MH broth or 7H9 broth (added with 0.2% glycerol, 0.05% Tween 80). DMSO in MH broth or 7H9 broth was used as a negative control, and broth-containing bacteria was used as positive control. All experiments were performed in triplicate with kanamycin and rifampicin as control agents.

[2] = system: Staphylococcus aureus ATCC29213; experiment: Antibacterial broth dilution MIC; assay type: cell-based
Experimental: as §1

[3] = system: Enterococcus faecalis ATCC29212; experiment: Antibacterial broth dilution MIC; assay type: cell-based
Experimental: as §1

[4] = system: Escherichia coli ATCC 25922; experiment: Antibacterial broth dilution MIC; assay type: cell-based; conditions: ATCC25922
Experimental: as §1

Micrococcus luteus SC-1 = experiment: Antibacterial broth dilution MIC; assay type: cell-based; conditions: SC1
Experimental: as §1

[5] = system: A549, human lung cancer cell line; experiment: MTT cytotoxicity; assay type: cell-based
Experimental: (§2) Compounds 1–8 were evaluated for cytotoxicity using HeLa, HepG2, A549, CNE2, and MCF7 cell lines using a previously reported MTT method. The L02 and Huvec-12 cell lines were used as normal cell line controls. All these cell lines were obtained from American Type Culture Collection (ATCC) and cultured according to ATCC recommendations. Cell lines were checked for mycoplasma and profiled via short tandem repeat profiling to confirm their identity by the supplier. All experiments were performed in triplicate with doxorubicin and cis-platinum as control agents.

[6] = system: MCF7, human breast adenocarcinoma cell line; experiment: MTT cytotoxicity; assay type: cell-based
Experimental: as §2

[7] = system: HeLa, human cervical carcinoma cell line; experiment: MTT cytotoxicity; assay type: cell-based
Experimental: as §2

[8] = system: HepG2, human hepatocellular carcinoma cell line; experiment: MTT cytotoxicity; assay type: cell-based
Experimental: as §2

[9] = system: CNE2, human nasopharyngeal carcinoma cell line; experiment: MTT cytotoxicity; assay type: cell-based
Experimental: as §2

MRSA shha-01 = experiment: microbe, parasite or virus in culture; assay type: cell-based; conditions: Staphylococcus aureus
M. smegmatis MC^2 155 = experiment: Antimycobacterial broth dilution MIC; assay type: cell-based, Mycobacterium smegmatis; conditions: Mycolicibacterium smegmatis, MC^2155, read-out: MIC
Experimental: as §1

[10] = system: Huvec-12, normal human umbilical vein endothelial cell line; experiment: MTT cytotoxicity, normal cell line control; assay type: cell-based; conditions: Huvec-12 normal cell line
Experimental: as §2

[11] = system: L02, normal human hepatic cell line; experiment: MTT cytotoxicity, normal cell line control; assay type: cell-based
Experimental: as §2

M. tuberculosis H37Rv = experiment: Anti-TB broth dilution MIC; assay type: cell-based, Mycobacterium tuberculosis
[12] = system: human tumor cell lines and normal human cell lines; experiment: MTT cytotoxicity, summary over human tumor and normal cell lines; assay type: cell-based; conditions: HeLa, HepG2, and A549 cell lines, read-out: IC50 values, range over cell lines
Experimental: as §2

[13] = system: Mycobacterium tuberculosis H37Rv; parameters: method as in earlier work; conditions: M. tuberculosis H37Rv; cited from earlier work
[14] = Mycobacterium tuberculosis, H37RV, broth dilution, triplicate, n = 3

Structure (SMILES)	MIC [1] [µM]	MIC [2] [µM]	MIC [3] [µM]	MIC [4] [µM]	MIC (Micrococcus luteus SC-1) [µM]	IC50 ([5]; Homo sapiens) [µM]	IC50 ([6]; Homo sapiens) [µM]	IC50 ([7]; Homo sapiens) [µM]	IC50 ([8]; Homo sapiens) [µM]	IC50 ([9]; Homo sapiens, CNE-2) [µM]	MIC (MRSA shha-01) [µM]	MIC (M. smegmatis MC^2 155) [µM]	IC50 ([10]; Homo sapiens, Endothelial cell) [µM]	IC50 ([11]; Homo sapiens) [µM]	MIC (M. tuberculosis H37Rv; [14]) [µM]	IC50 [12] [µM]	further results
C=CC(C)(C)n1cc(C[C@@H]2NC(=O)[C@H](C/C=C/C)NC(=O)[C@H](CC(C)C)NC(=O)[C@H](C[C@H](C)C(=O)O)N(C)C(=O)[C@H](C)NC(=O)[C@H](Cc3ccc(O)c([N+](=O)[O-])c3)NC(=O)[C@H](CC(C)C)N(C)C2=O)c2ccccc21 [compound 8, ilamycin F] (cyclo(A[NMeGlu(4S-Me)]L[Gly(E-crotyl)][Trp(1-(1,1-Me2-allyl))][NMeL][Tyr(3-NO2)]))	123 (≈ 128 µg/mL)	> 123	> 123	> 123	> 123	> 50	> 50	> 50	> 50	> 50	> 123	30.7 (≈ 32 µg/mL)	> 50	> 50	1.2 (≈ 1.25 µg/mL)		
N.N.[Cl][Pt][Cl] [Cis, Cisplatin, reference compound]																	IC50 [5]: 9.3 µM; IC50 [6]: 14.1 µM; IC50 [7]: 5.2 µM; IC50 [8]: 2.5 µM; IC50 [9]: 12.9 µM; IC50 [10]: 34.5 µM; IC50 [11]: 22.7 µM
C=CC(C)(C)n1cc(C[C@@H]2NC(=O)[C@H](C/C=C/C)NC(=O)[C@H](CC(C)C)N3C(=O)[C@H](C[C@H](C)C3O)N(C)C(=O)[C@H](C)NC(=O)[C@H](Cc3ccc(O)c([N+](=O)[O-])c3)NC(=O)[C@H](CC(C)C)N(C)C2=O)c2ccccc21 (stereo partly shown) [6/7]	125 (≈ 128 µg/mL)	> 125	> 125	> 125	> 125	6.2	3.9	3.9	4.9	14.9	> 125	30.7 (≈ 31.5 µg/mL)	18.6	14.9	0.0098 (≈ 0.0101 µg/mL)	3.2 to 6.2	fold superior to positive control rifampin (MIC) (M. tuberculosis H37Rv): 30 fold; MIC (M. tuberculosis H37Rv; Mycobacterium tuberculosis, H37RV): ~0.0098 µM (≈ 0.0101 µg/mL); MIC (M. tuberculosis H37Rv; read-out: MIC): 0.0098 µM (≈ 0.0101 µg/mL)
CC=CCC1NC(=O)C(CC(C)C)N2C(=O)C(CC(C)C2O)N(C)C(=O)C(C)NC(=O)C(Cc2ccc(O)c([N+](=O)[O-])c2)NC(=O)C(CC(C)C)N(C)C(=O)C(Cc2cn(C(C)(C)C3CO3)c3ccccc23)NC1=O (stereo not shown) [compound 3, ilamycin C1]																	MIC [13]: < 1.3 µg/mL
CC=CCC1NC(=O)C(CC(C)C)NC(=O)C(CC(C)C(=O)O)N(C)C(=O)C(C)NC(=O)C(Cc2ccc(O)c([N+](=O)[O-])c2)NC(=O)C(CC(C)C)N(C)C(=O)C(Cc2cn(C(C)(C)C3CO3)c3ccccc23)NC1=O (stereo not shown) [compound 5, ilamycin D] (cyclo([X2]L[ξNle(4,5-dehydro)][X1][NMeL][Tyr(3-NO2)]A); configuration not given here)	121 (≈ 128 µg/mL)	> 121	> 121	> 121	> 121	> 50	> 50	> 50	> 50	> 50	> 121	30.3 (≈ 32.1 µg/mL)	> 50	> 50	1.2 (≈ 1.27 µg/mL)		
CC=CCC1NC(=O)C(CC(C)C)N2C(=O)C(CC(C)C2O)N(C)C(=O)C(C)NC(=O)C(Cc2ccc(O)c([N+](=O)[O-])c2)NC(=O)C(CC(C)C)N(C)C(=O)C(Cc2cn(C(C)(C)C3CO3)c3ccccc23)NC1=O (stereo not shown) [3/4]	123 (≈ 128 µg/mL)	> 123	> 123	> 123	> 123	3.5	4.5	3.3	3.2	6.8	> 123	0.12 (≈ 0.125 µg/mL)	33.8	7.4	9.6 (≈ 10 µg/mL)	3.2 to 6.2	
